Measured values taken from US11167007B2, “FOXM1 modulators and uses thereof” (City of Hope, priority 2016, dated 2021).
“Also recorded” adds a separate entry of the source.

Key:
AR [1] = molecular target: T1, AR (Homo sapiens, UniProt P10275); assay: FRET-based AR conformation change reporter (CARY) in HEK293 kidney cells; assay type: cell-based; set-up: Full length AR with cyan fluorescent protein (CFP) or yellow fluorescent protein (YFP) fused to either end (CARY); expressed in transfected cells
T1 sequence (P10275 1-920): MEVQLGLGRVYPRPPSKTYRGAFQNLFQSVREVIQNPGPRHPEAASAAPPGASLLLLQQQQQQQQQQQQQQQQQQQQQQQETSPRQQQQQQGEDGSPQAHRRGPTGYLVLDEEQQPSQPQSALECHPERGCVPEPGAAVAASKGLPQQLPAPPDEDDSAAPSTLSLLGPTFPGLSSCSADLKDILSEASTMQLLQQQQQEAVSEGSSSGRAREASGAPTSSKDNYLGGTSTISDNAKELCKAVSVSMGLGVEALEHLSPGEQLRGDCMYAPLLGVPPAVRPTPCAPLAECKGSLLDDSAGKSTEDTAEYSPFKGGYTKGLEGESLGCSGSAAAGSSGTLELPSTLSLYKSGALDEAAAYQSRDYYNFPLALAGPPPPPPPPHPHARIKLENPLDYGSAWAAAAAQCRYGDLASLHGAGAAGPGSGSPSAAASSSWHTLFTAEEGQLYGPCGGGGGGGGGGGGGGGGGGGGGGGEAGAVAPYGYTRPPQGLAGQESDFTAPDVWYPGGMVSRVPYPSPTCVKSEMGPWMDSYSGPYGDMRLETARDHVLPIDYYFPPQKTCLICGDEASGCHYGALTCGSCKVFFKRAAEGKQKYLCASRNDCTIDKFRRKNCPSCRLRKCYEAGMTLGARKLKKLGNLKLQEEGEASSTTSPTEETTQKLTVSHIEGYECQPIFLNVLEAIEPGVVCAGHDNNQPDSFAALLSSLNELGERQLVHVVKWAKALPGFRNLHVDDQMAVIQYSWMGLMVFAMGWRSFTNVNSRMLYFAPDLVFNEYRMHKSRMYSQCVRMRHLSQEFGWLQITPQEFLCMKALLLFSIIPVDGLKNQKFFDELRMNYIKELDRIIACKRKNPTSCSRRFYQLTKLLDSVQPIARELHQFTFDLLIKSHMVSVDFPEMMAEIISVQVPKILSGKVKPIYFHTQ
Description: (§1) Creation of stable C-AR-Y reporter cell lines. Cell lines listed above were either transfected with a plasmid or a virus containing the CFP-AR-YFP construct preceding an IRES and hygromycin resistance gene and clonal stable cell lines selected. Qualification criteria for the transfected cell lines were described by Jones et al, ACS Chem Biol, 3(7):412-8 (2008).
(§2) Screen for AR-modulators. Screening was performed essentially as described by Jones et al, ACS Chem Biol, 3(7):412-8 (2008). Briefly, C-AR-Y reporter GTI-7 were transferred to 96 well plates and treated with library compounds for 24 hours. […] The compounds to be tested were from the NCI/DTP Open Chemical Repository's Approved Oncology Drugs Set II, Diversity Set II and Mechanistic Set. […] After 24 hours, medium was aspirated and FRET was measured as previously described using a monochromator-based fluorescence plate reader (M1000, Tecan, Inc.). Jones et al, ACS Chem Biol, 3(7):412-8 (2008). […]
(§3) In order to identify potential cell-type selective AR modulators, the FRET-based assay of AR conformation change was utilized. […] This produces an accurate and quantifiable read-out of AR activity. […] Candidate hits were then further evaluated by dose response. […] In addition to FRET, AR transcriptional activity was also assessed in several cell lines by transfecting cells with a luciferase reporter driven by the human PSA promoter. […]

AR [2] = molecular target: T1, AR; assay: FRET-based AR conformation change reporter (CARY) in C2C12 muscle cells; assay type: cell-based, murine; set-up: Full length AR with cyan fluorescent protein (CFP) or yellow fluorescent protein (YFP) fused to either end (CARY); expressed in transfected cells; conditions: FRET or luciferase
Description: as §1, §2, §3

AR [3] = molecular target: T1, AR; assay: FRET-based AR conformation change reporter (CARY) in 3T3L1 adipose cells; assay type: cell-based, murine; set-up: Full length AR with cyan fluorescent protein (CFP) or yellow fluorescent protein (YFP) fused to either end (CARY); expressed in transfected cells; conditions: 3T3L1 adipose-derived cells
Description: as §1, §2, §3

AR [4] = assay: Immunohistochemistry of AR in spinal cord and muscle tissue; assay type: in vivo, rat; conditions: rats, 100 mg/kg per day, four weeks

Row | SMILES | AR inhibitor activity in words (AR [1]) | AR inhibitor (antagonist) activity in words (AR [2]) | AR inhibitor activity in words (AR [3]) | AR expression in striated muscle tissue nuclei (IHC) (AR [4]) | AR levels in spinal cord neurons (IHC) (AR [4])
1 | C=C(NC(=O)C(=C)NC(=O)c1csc(C2=N[C@@H]3c4csc(n4)[C@H]4NC(=O)c5csc(n5)[C@H]([C@](C)(O)[C@@H](C)O)NC(=O)[C@H]5CSC(=N5)/C(=C/C)NC(=O)[C@H]([C@@H](C)O)NC(=O)c5csc(n5)[C@]3(CC2)NC(=O)[C@H](C)NC(=O)C(=C)NC(=O)C(=C)NC(=O)[C@H](C(C)C)N[C@@H]2C=Cc3c([C@H](C)O)cc(nc3[C@H]2O)C(=O)O[C@@H]4C)n1)C(N)=O [NSC285116, siomycin A] | some activity | little to no activity; also recorded: not C2C12 muscle cells | little to no activity | – | –
2 | C=C(NC(=O)C(=C)NC(=O)c1csc(C2=N[C@@H]3c4csc(n4)[C@H]4NC(=O)c5csc(n5)[C@H]([C@](C)(O)[C@@H](C)O)NC(=O)[C@H]5CSC(=N5)/C(=C/C)NC(=O)[C@H]([C@@H](C)O)NC(=O)c5csc(n5)[C@]3(CC2)NC(=O)[C@H](C)NC(=O)C(=C)NC(=O)[C@H](C)NC(=O)[C@H]([C@@H](C)CC)N[C@@H]2C=Cc3c([C@H](C)O)cc(nc3[C@H]2O)C(=O)O[C@@H]4C)n1)C(N)=O [thiostrepton] | – | – | – | not affected | not affected
